In data set [1] the test system is Aspergillus fumigatus. The data set is described as follows: Antifungal activity against Aspergillus fumigatus ATCC 13073. The class given is functional.
Data set [2] deals with Aspergillus fumigatus. The data set is described as follows: Antifungal activity against Aspergillus fumigatus ATCC 13073 infected in immunosuppressed Swiss Webster mouse assessed as increase in survival rate at 5 mg/kg, iv for 6 days treated 24 hrs postinfection measured after 28 days. The class given is functional, organism-based. The arrangement: dose 5 mg/kg.
In data set [3] the test system is Aspergillus fumigatus. The data set is described as follows: Antifungal activity against Aspergillus fumigatus ATCC 13073 infected Swiss Webster mouse pulmonary aspergillosis model assessed as organism survival at 5 mg/kg/day, iv for 5 days dosed 2 hrs post challenge. The class given is functional.
Data set [4] has as its system Spleen. The data set is described as follows: Drug level in immunosuppressed Swiss Webster mouse spleen with pulmonary aspergillosis assessed as compound level per gram of tissue at 5 mg/kg/day, iv for 5 days measured on day 6. Type of data set: ADME, organism-based. Particulars: in vivo, 120 h. The arrangement: route intravenous.
The test system of data set [5] is Kidney. The data set is described as follows: Drug level in immunosuppressed Swiss Webster mouse kidney with pulmonary aspergillosis assessed as compound level per gram of tissue at 5 mg/kg/day, iv for 5 days measured on day 6. The class given is ADME, organism-based. The arrangement: route intravenous. The settings on record: in vivo, 120 h.
Data set [6] has as its system Kidney. The data set is described as follows: Drug level in immunosuppressed Swiss Webster mouse Kidney with disseminated aspergillosis assessed as compound level per gram of tissue at 15 mg/kg/day, iv for 7 days measured on day 8. Type of data set: ADME, organism-based. Set-up: route intravenous. Particulars: in vivo, 168 h.
In data set [7] the test system is Spleen. As to the kind of experiment: Drug level in immunosuppressed Swiss Webster mouse spleen with disseminated aspergillosis assessed as compound level per gram of tissue at 10 mg/kg/day, iv for 7 days measured on day 8. Type of data set: ADME, organism-based. Set-up: route intravenous. The settings on record: in vivo, 168 h.
For data set [8], the system named is Aspergillus fumigatus. As to the kind of experiment: Antifungal activity against Aspergillus fumigatus ATCC 13073 infected in immunosuppressed Swiss Webster mouse assessed as reduction in fungal burden in spleen at 15 mg/kg, iv for 6 days treated 24 hrs postinfection measured 24 hrs after last dose by galactomnnan assay relative to control. Type of data set: functional, organism-based. Set-up: dose 15 mg/kg.

The subject of data set [9] is Aspergillus fumigatus. The data set is described as follows: Antifungal activity against Aspergillus fumigatus ATCC 13073 infected in immunosuppressed Swiss Webster mouse assessed as reduction in fungal burden in spleen at 10 mg/kg, iv for 6 days treated 24 hrs postinfection measured 24 hrs after last dose relative to control. The arrangement: dose 10 mg/kg. The class given is functional, organism-based.

The subject of data set [10] is Spleen. The data set is described as follows: Drug level in immunosuppressed Swiss Webster mouse spleen with disseminated aspergillosis assessed as compound level per gram of tissue at 15 mg/kg/day, iv for 7 days measured on day 8. Type of data set: ADME, organism-based. Set-up: route intravenous. The settings on record: in vivo, 168 h.
For data set [11], the system named is Spleen. As to the kind of experiment: Drug level in immunosuppressed Swiss Webster mouse spleen with disseminated aspergillosis assessed as compound level per gram of tissue at 5 mg/kg/day, iv for 7 days measured on day 8. Type of data set: ADME, organism-based. Set-up: route intravenous. Particulars: in vivo, 168 h.
The test system of data set [12] is Aspergillus fumigatus. The data set is described as follows: Antifungal activity against Aspergillus fumigatus ATCC 13073 infected in immunosuppressed Swiss Webster mouse assessed as reduction in fungal burden in kidney at 5 mg/kg, iv for 6 days measured 24 hrs after last dose relative to control. The arrangement: dose 5 mg/kg. Type of data set: functional, organism-based.

Data set [13] deals with Aspergillus fumigatus. The data set is described as follows: Antifungal activity against Aspergillus fumigatus ATCC 13073 infected in immunosuppressed Swiss Webster mouse assessed as reduction in fungal burden in spleen at 5 mg/kg, iv for 3 days treated 4 days postinfection relative to control. Type of data set: functional, organism-based. The arrangement: dose 5 mg/kg.

The test system of data set [14] is Aspergillus fumigatus. The data set is described as follows: Antifungal activity against Aspergillus fumigatus ATCC 13073 infected in immunosuppressed Swiss Webster mouse assessed as reduction in fungal burden in kidney at 5 mg/kg, iv for 3 days treated 4 days postinfection relative to control. Type of data set: functional, organism-based. Set-up: dose 5 mg/kg.

Data set [15] has as its system Kidney. As to the kind of experiment: Drug level in immunosuppressed Swiss Webster mouse Kidney with disseminated aspergillosis assessed as compound level per gram of tissue at 5 mg/kg/day, iv for 7 days measured on day 8. The class given is ADME, organism-based. Set-up: route intravenous. The settings on record: in vivo, 168 h.
In data set [16] the test system is Aspergillus fumigatus. As to the kind of experiment: Antifungal activity against Aspergillus fumigatus ATCC 13073 infected in immunosuppressed Swiss Webster mouse assessed as survival rate at 15 mg/kg, iv for 6 days measured after 28 days. Type of data set: functional.
Data set [17] concerns Kidney. As to the kind of experiment: Drug level in immunosuppressed Swiss Webster mouse Kidney with disseminated aspergillosis assessed as compound level per gram of tissue at 10 mg/kg/day, iv for 7 days measured on day 8. Type of data set: ADME, organism-based. The arrangement: route intravenous. The settings on record: in vivo, 168 h.
Data set [18] concerns Aspergillus fumigatus. The data set is described as follows: Antifungal activity against Aspergillus fumigatus ATCC 13073 infected in immunosuppressed Swiss Webster mouse assessed as survival rate at 5 mg/kg, iv for 6 days treated 24hrs postinfection measured after 28 days. The class given is functional.
Data set [19] concerns Aspergillus fumigatus. As to the kind of experiment: Antifungal activity against Aspergillus fumigatus ATCC 13073 infected in immunosuppressed Swiss Webster mouse assessed as reduction in fungal burden in spleen at 5 mg/kg, iv for 6 days treated 24 hrs postinfection measured 24 hrs after last dose relative to control. The class given is functional, organism-based. The arrangement: dose 5 mg/kg.

Each structure is given as a SMILES string. Converted amounts (≈) assume the structure as drawn. The source made the active and inactive calls. No cut-off for these calls is given here. Starred links: 1 amine or outer side, 2 acyl side, 3 side chain; linkers in the order of their positions; H or OH if unused. Positions of bridges follow the written chain, without caps; N, C: chain ends. Non-standard residues stand in square brackets, D forms with d. Residues, ends and D or L forms follow the SMILES beside them. *: point of attachment. hTyr(3S-OH,4S-OH,3'-OSO3H) = N[C@H](C(=O)O)[C@H](O)[C@@H](O)c1ccc(O)c(OS(=O)(=O)O)c1; Orn(4R-OH,5R-OH) = O=C([C@H](C[C@@H](O)[C@@H](O)N[*:3])N[*:1])[*:2]; Pro(3S-OH,4S-Me) = C[C@H]1CN[C@H](C(=O)O)[C@H]1O; X1 = CCCCCOc1ccc(-c2cc(-c3ccc(C(=O)*)cc3)no2)cc1; Gln(3R-OH) = NC(=O)C[C@@H](O)[C@H](N)C(=O)O; Hyp = O=C(O)[C@@H]1C[C@@H](O)CN1

As a reminder, the MIC is the lowest concentration that inhibits growth of the organism.

In the data set on Aspergillus fumigatus [1], `CC[C@H](C)C[C@H](C)CCCCCCCCC(=O)N[C@H]1C[C@@H](O)[C@@H](NCCN)NC(=O)[C@@H]2[C@@H](O)CCN2C(=O)[C@H]([C@H](O)CCN)NC(=O)[C@H]([C@H](O)[C@@H](O)c2ccc(O)cc2)NC(=O)[C@@H]2C[C@@H](O)CN2C(=O)[C@H]([C@@H](C)O)NC1=O` [CASPOFUNGIN] came in with a minimum inhibitory concentration (MIC) of 0.31 µg/mL (≈ 0.284 µM). For the same molecule, the result with Aspergillus fumigatus [2] was Active. For the same molecule, the survival at 5 mg/kg/day in the data set with Aspergillus fumigatus [3] is 0%. For the same molecule, the tissue concentration worked out at 31.6 µg/g in the data set with Spleen [4] and 14.4 µg/g in the data set on Kidney [5].

In turn, `CCCCCOc1ccc(-c2cc(-c3ccc(C(=O)N[C@H]4C[C@@H](O)[C@@H](O)NC(=O)[C@@H]5[C@@H](O)[C@@H](C)CN5C(=O)[C@H]([C@H](O)CC(N)=O)NC(=O)[C@H]([C@H](O)[C@@H](O)c5ccc(O)c(OS(=O)(=O)O)c5)NC(=O)[C@@H]5C[C@@H](O)CN5C(=O)[C@H]([C@@H](C)O)NC4=O)cc3)no2)cc1` [MICAFUNGIN] (X1-[Orn(4R-OH,5R-OH)]T[Hyp][hTyr(3S-OH,4S-OH,3'-OSO3H)][Gln(3R-OH)][Pro(3S-OH,4S-Me)]; lactam 1-C) had an MIC against Aspergillus fumigatus [1] of 0.31 µg/mL (≈ 0.244 µM). Also, the tissue concentration with Kidney [6] worked out at 22.5 µg/g; in the data set with Spleen [7], 33.6 µg/g; in the data set on Spleen [10] it was 32.7 µg/g; in the data set on Spleen [11] it was 17.9 µg/g; in the data set on Kidney [15], 5.6 µg/g; with Kidney [17], 25.2 µg/g. The outcome in the data set on Aspergillus fumigatus [8], in the data set on Aspergillus fumigatus [9], with Aspergillus fumigatus [12] and in the data set with Aspergillus fumigatus [19] was Active. Also, the result in the data set with Aspergillus fumigatus [13] and in the data set with Aspergillus fumigatus [14] was inactive. In the data set with Aspergillus fumigatus [16], the survival at 15 mg/kg turned out to be 57%. Besides, the survival at 5 mg/kg in the data set with Aspergillus fumigatus [18] was determined as 86%.

The values are drawn from ChEMBL document CHEMBL1687768, “Liposomal amphotericin B and echinocandins as monotherapy or sequential or concomitant therapy in murine disseminated and pulmonary Aspergillus fumigatus infections” (Antimicrob Agents Chemother, 2010).
